Data as given in patent US20140271584A1, “Methods and Compositions for Direct Reprogramming of Somatic Cells to Stem Cells, and Uses of these Cells” (THE RESEARCH FOUNDATION FOR THE STATE UNIVERSITY OF NEW YORK, priority 2013, published 2014).

System: AF cells
Assay: Colony formation of OCT4 lentivirus-transduced AF cells in ES or endothelial cell medium
Format: cell-based, human
Protocol: Transduction via integrating plasmid. Lentivirus based vectors carrying human SOX2 or OCT4 gene, or GFP only gene, each expressed under control of either the SFFV promoter or EF1α promoter, were packaged using the 293FT cell line (Invitrogen/Life Technologies, Inc.) to produce lentivirus. The viruses were concentrated by centrifugation and stored at −80° C. One day before infection, tissue culture dishes were coated with poly-L-ornithine (PLO) and laminin AF, BM, or HFF cells were seeded at a density of 15,000 cells/cm^2. Lentiviruses were added at a MOI of 10-100 in the presence of 8 μg/ml polybrene (EMD Millipore, Billerica, Mass.) for 6 hours. Efficiency was measured after 24-48 hours by expression of green fluorescence.
After viral transduction, cells were transferred to human ES (embryonic stem cell) medium (supplemented with 20% Knockout Serum replacement, 2 mM glutamine, 0.1 mM non-essential amino acids, 10 ng/ml bFGF, 100 μM β-Mercaptoethanol) or endothelial cell medium, such as EGM2 (Lonza, Inc.).

SMILES	increase of the efficiency of colony formation (accelerated and increased) (0.1 mM in the culture media)	increase of the efficiency of colony formation (accelerated and increased) (10 μM in the culture media)
Nc1ncnc2c1nc(Br)n2[C@@H]1O[C@@H]2COP(=O)(O)O[C@H]2[C@H]1O [8-Br-cAMP, (1S,6R,8R,9R)-8-(6-amino-8-bromopurin-9-yl)-3-hydroxy-3-oxo-2,4,7-trioxa-3λ5-phosphabicyclo[4.3.0]nonan-9-ol]	approximately 15%	–
Cc1cccc(-c2n[nH]cc2-c2ccc3ncccc3n2)n1 [compound 616452, 2-(3-(6-Methylpyridin-2-yl)-1H-pyrazol-4-yl)-1,5-naphthyridine]	–	approximately 15%
